Laboratory results from patent US9975853B2, “Tetrahydroisoquinolinone derivatives and their use in the inhibition of the HSP70 protein” (Julius-Maximilians-Universitaet Wuerzburg, priority 2014, dated 2018).
pEC50: −log10 of the molar value.

tested on: INA-6; experiment: Cell viability assay (annexin V-FITC/propidium iodide, flow cytometry) in INA-6 multiple myeloma cells; type: cell-based, human; settings: Homo sapiens, INA-6, 72 h, INA-6 multiple myeloma cells, 72 hours of treatment, viable cell fraction; mean of at least three determinations; read-out: INA-6 EC50(±sdv)
Method: The effect of pharmacological Hsp70 inhibition on cell viability was analyzed after 72 hours of treatment in both non-malignant (mononuclear cells from the peripheral blood) and malignant lymphocytes (multiple myeloma cells). The mononuclear cells were separated from the peripheral blood of healthy donors by Ficoll-Hypaque density gradient centrifugation. The human cell line INA-6 represents a well-established model for multiple myeloma. The percentage of viable and apoptotic cell fractions was assessed using an annexin V-FITC/propidium iodide (PI) staining kit (Bender MedSystems, Vienna, Austria) according to manufacturer's instructions. In brief, cells were washed in PBS, incubated for 10 min in 100 ml binding buffer (10 mM HEPES/NaOH, pH 7.4, 140 mM NaCl, 2.5 mM CaCl2) containing 2.5 ml annexin V-FITC mix and 1 mg/ml propidium iodide (PI), subsequently diluted with 100 ml binding buffer and analyzed by flow cytometry (FACSCalibur/CELLQuest; Becton Dickinson, Heidelberg, Germany). Whereas viable cells are negative for both, annexin V-FITC and PI, early apoptotic cells show a positive annexin V-FITC staining, and cells in a late apoptotic stage which lose their membrane integrity additionally incorporate DNA-binding PI. To establish kill curves, concentrations of the tested compounds were titrated, and the measured viable cell fractions were further analyzed using the Prism Calculation Software (GraphPad Software Inc., La Jolla, USA).
In FIG. 2A Western blot analyses of caspases 9 and 3, and the caspase substrate PARP (upper panel), and viability analyses (lower panel) of INA-6 MM cells upon treatment with trans-7b for 24 hours are shown. INA-6 cells were either incubated with DMSO (as a solvent control) or with 0.6 μM of trans-7b, and additionally incubated either with DMSO or the pan-caspase inhibitor Z-VAD-FMK prior to analyses by Western or viability assessment (without Z-VAD-FMK co-treatment) by Annexin V/propidum iodide double staining. For Western analyses INA-6 cell pellets were dissolved in lysis buffer (20 mM HEPES (pH 7.9), 350 mM NaCl, 1 mM MgCl2, 0.5 mM EDTA, 0.1 mM EGTA, 1% NP40, 0.5 mM dithiothreiol (DTT), 1 mM Na3VO4, 0.1 mM PMSF and 1 μg/ml aprotinin). Lysates were cleared by centrifugation, measured by quantitative protein assay (Bio-Rad, München, Germany) and subjected to SDS gel electrophoresis. Proteins were transferred onto nitrocellulose membranes (Schleicher & Schuell, Dassel, Germany), incubated with antibodies specific for caspase 9, caspase 3 or PARP (Cell Signaling Technology, Frankfurt a.Main, Germany) according to standard procedures and visualized with secondary anti-rabbit horseradish peroxidase (HRP)-conjugated antibodies using an enhanced chemoluminescence detection system (ECL, Amersham, Freiburg, Germany). […] Annexin V/propidium iodide (PI) staining was performed using a fluorescein isothiocyanate (FITC) conjugated recombinant human annexin/propidium iodide kit (BenderMedSystems, Vienna, Austria) according to the manufacturer's instructions. INA-6 cells were washed in PBS, incubated for 15 minutes in 100 ml binding buffer (10 mM HEPES/NaOH, pH 7.4, 140 mM NaCl, 2.5 mM CaCl2) containing 2.5 mL annexin V-FITC mix and 1 mg/ml PI and analyzed by flow cytometry (FACSCalibur/CELLQuest; Becton Dickinson, Heidelberg, Germany). Whereas early apoptosis is characterized by positive annexin V-FITC staining reaction, cells in a late apoptotic stage lose their membrane integrity and additionally incorporate PI. Thus, the fraction of viable cells remains negative for both annexin V-FITC and PI. […] Based on the above described experiments also viability analyses of INA-6 in comparison with non-malignant PBMCs were performed choosing a longer incubation time (72 hours) as shown in FIG. 2B or C. Raw data of three independent experiments have been calculated to establish means, standard deviation and dose-effect curves of trans-7b.

Row | Compound | pEC50
1 | COc1ccc([C@H]2[C@H](C(=O)O)c3ccccc3C(=O)N2c2ccc(OC)cc2)cc1 (relative stereo) [cis-6d, Sodium trans-2,3-bis(4-methoxyphenyl)-1-oxo-1,2,3,4-tetrahydroisoquinoline-4-carboxylate] | < 4.00
2 | COc1ccc([C@H]2[C@@H](C(=O)O)c3ccccc3C(=O)N2c2ccc(OC)cc2)cc1 (relative stereo) [trans-6d, Sodium cis-2,3-bis(4-methoxyphenyl)-1-oxo-1,2,3,4-tetrahydroisoquinoline-4-carboxylate] | 5.10
3 | Cc1cccc(NC(=O)C2c3ccccc3C(=O)N(c3ccccc3)C2c2ccccc2)n1 (stereo not drawn) [trans-7a, trans-N-(6-Methylpyridin-2-yl)-1-oxo-2,3-diphenyl-1,2,3,4-tetrahydroisoquinoline-4-carboxamide] | 5.64
4 | COc1ccc(C2C(C(=O)Nc3cccc(C)n3)c3ccccc3C(=O)N2c2ccc(OC)cc2)cc1 (stereo not drawn) [trans-7d, trans-2,3-Bis(4-methoxyphenyl)-N-(6-methylpyridin-2-yl)-1-oxo-1,2,3,4-tetrahydroisoquinoline-4-carboxamide] | 6.17
5 | COc1ccc(C2C(C(=O)Nc3ccccn3)c3ccccc3C(=O)N2c2ccc(OC)cc2)cc1 (stereo not drawn) [trans-7f, trans-2,3-Bis(4-methoxyphenyl)-1-oxo-N-(pyridin-2-yl)-1,2,3,4-tetrahydroisoquinoline-4-carboxamide] | 6.28
6 | CNC(=O)C1c2ccccc2C(=O)N(c2ccc(OC)cc2)C1c1ccc(OC)cc1 (stereo not drawn) [trans-7g, trans-2,3-Bis(4-methoxyphenyl)-N-methyl-1-oxo-1,2,3,4-tetrahydroisoquinoline-4-carboxamide] | 5.15
7 | COc1ccc(C2C(C(=O)N(C)C)c3ccccc3C(=O)N2c2ccc(OC)cc2)cc1 (stereo not drawn) [trans-7h, trans-2,3-Bis(4-methoxyphenyl)-N,N-dimethyl-1-oxo-1,2,3,4-tetrahydroisoquinoline-4-carboxamide] | < 4.00
8 | COc1ccc(C2C(C(=O)Nc3cccc4c3CCCC4)c3ccccc3C(=O)N2c2ccc(OC)cc2)cc1 (stereo not drawn) [trans-7i, trans-2,3-Bis(4-methoxyphenyl)-1-oxo-N-(5,6,7,8-tetrahydronaphthalen-1-yl)-1,2,3,4-tetrahydroisoquinoline-4-carboxamide] | < 4.00
9 | COc1ccc(C2C(C(=O)Nc3cc(C)cc(C)c3)c3ccccc3C(=O)N2c2ccc(OC)cc2)cc1 (stereo not drawn) [trans-7j, trans-N-(3,5-Dimethylphenyl)-2,3-bis(4-methoxyphenyl)-1-oxo-1,2,3,4-tetrahydroisoquinoline-4-carboxamide] | 6.02
10 | Cc1cccc(NC(=O)C2c3ccccc3C(=O)N(c3ccc(F)cc3)C2c2ccc(F)cc2)n1 (stereo not drawn) [trans-7k, trans-2,3-Bis(4-fluorophenyl)-N-(6-methylpyridin-2-yl)-1-oxo-1,2,3,4-tetrahydroisoquinoline-4-carboxamide] | 5.19

same assay, conditions: Homo sapiens, INA-6, 72 h, read-out: INA-6 EC50(±sdv)

Row | Compound | pEC50
11 | COc1ccc(N2C(=O)c3ccccc3[C@H](C(=O)O)[C@@H]2c2ccccc2)cc1 (relative stereo) [cis-6c, Sodium cis-2-(4-methoxyphenyl)-1-oxo-3-phenyl-1,2,3,4-tetrahydroisoquinoline-4-carboxylate] | < 4.00
12 | COc1ccc([C@H]2[C@H](C(=O)O)c3ccccc3C(=O)N2c2ccccc2)cc1 (relative stereo) [trans-6b, Sodium trans-3-(4-methoxyphenyl)-1-oxo-2-phenyl-1,2,3,4-tetrahydroisoquinoline-4-carboxylate] | 5.70
13 | COc1ccc(N2C(=O)c3ccccc3[C@@H](C(=O)O)[C@@H]2c2ccccc2)cc1 (relative stereo) [trans-6c, Sodium trans-2-(4-methoxyphenyl)-1-oxo-3-phenyl-1,2,3,4-tetrahydroisoquinoline-4-carboxylate] | 4.19
14 | COc1ccc(C2C(C(=O)Nc3cccc(C)c3)c3ccccc3C(=O)N2c2ccc(OC)cc2)cc1 (stereo not drawn) [trans-7e, trans-2,3-Bis(4-methoxyphenyl)-1-oxo-N-(m-tolyl)-1,2,3,4-tetrahydroisoquinoline-4-carboxamide] | 6.06
